# Experimental data published in ChEMBL document CHEMBL1140688, “Sulfenamides as prodrugs of NH-acidic compounds: a new prodrug option for the amide bond” (Bioorg Med Chem Lett, 2007).
# Tests used:
# Type in all cases: physicochemical
# Settings in all cases: buffer
# [1] = Chemical stability assessed as half life at pH 6.0
# [2] = Chemical stability assessed as half life at pH 6.5
# [3] = Chemical stability assessed as half life at pH 7.0
compound,measurement,setting,value
CCOC(=O)[C@@H](N)CSNC(=O)N1c2ccccc2C=Cc2ccccc21,half-life,[1],214 h
same,half-life,[2],81.6 h
same,half-life,[3],50.4 h
